This note sets out measurements from patent US20100022656A1, “OPTICALLY ACTIVE PHENYLETHANOL AMINES AND PREPARING METHOD THEREOF” (SHENYANG PHARMACEUTICAL UNIVERSITY, priority 2006, published 2010).

T1 sequence (Q8K4Z4 whole entry): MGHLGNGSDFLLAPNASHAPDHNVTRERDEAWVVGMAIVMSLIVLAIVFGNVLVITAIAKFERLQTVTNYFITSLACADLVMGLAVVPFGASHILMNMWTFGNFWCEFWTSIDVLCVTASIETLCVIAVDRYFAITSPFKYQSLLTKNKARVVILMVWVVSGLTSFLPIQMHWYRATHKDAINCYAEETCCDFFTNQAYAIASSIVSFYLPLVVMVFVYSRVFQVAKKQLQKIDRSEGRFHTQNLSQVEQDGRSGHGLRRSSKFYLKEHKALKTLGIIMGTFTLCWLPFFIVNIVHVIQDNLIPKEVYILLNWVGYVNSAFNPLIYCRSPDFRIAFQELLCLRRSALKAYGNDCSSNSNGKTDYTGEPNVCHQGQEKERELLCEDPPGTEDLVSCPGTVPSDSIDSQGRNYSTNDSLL

This experiment has as its target T1, β2-receptor (Cavia porcellus, UniProt Q8K4Z4).
T1 construct: Trachea was removed and cut from thyroid cartilage to trachea crotch; from tissue; host or cells: guinea pig (Hartley) isolated trachea strips
Put plainly: Antagonistic effect on isolated trachea strip constriction induced by histamine (study of effect on β2-receptor). Format: cell-based. The note with it: isolated guinea pig (Hartley) trachea strips contracted with histamine to 50% of maximum; tested compounds formulated as 10^−6 M solution; 37° C. An excerpt: Study of the Effect of Compounds of the Invention on β2-Receptor
Sample: All tested compounds were formulated into solution of 10^−6 M.
The antagonistic effects of the compounds of the present invention on the trachea constriction induced by histamine.
Guinea pigs were sacrificed and cut through the skin and subcutaneous tissue on ventral side of neck. Trachea was removed and cut from thyroid cartilage to trachea crotch, then placed into an ice cooled oxygenated Kebs-Hensleits solution. The connective tissues around the trachea were cut off. The trachea was held by a nipper on one end and cut into trachea strips (2 cm×3 mm) in helix. The samples were then put into a bath containing 20 ml of Kebs-Hensleits solution. The lower end of the trachea strips was fastened to a vent hook and the upper end was connected to a strain gauge transducer, thus the tension change was measured by the recorder. The bath was controlled at 37° C. and oxygen gas was continuously supplied. The preload of the samples was 2 g. The samples were equilibrated in the nutrient solution for 1 hour and the solution was refreshed every 20 min.
When the tension of the samples reached a stable value, various concentrations (1×10^−10˜3×10^−4 mol·L^−1) of histamine were added to the bath. A dose-effect curve was established to determine the concentration of histamine when 50% of the maximum contraction was reached. After refreshing the solution and balancing the samples for 60 min, an amount of histamine was added to the bath. When the tension of trachea strips reached 50% of the maximum contraction, the tested compounds were added to bath, and the antagonistic effect (represented as relaxing rate) of the compounds on the isolated trachea constriction induced by histamine was calculated as below:
Relaxing rate (%)=[(Contraction intensity after histamine addition−Contraction intensity after tested compounds addition)/[…]]×100%
As to `CC(C)(C)NC(CO)c1cc(Cl)c(N)c(C#N)c1.Cl` (stereo not drawn) [drawing 6], the “Relaxing rate (%)” value was found to be 100.0%.

With `CC(C)(C)NC(CO)c1cc(Cl)c(N)c(C#N)c1.Cl` (stereo not drawn) [drawing 7], the “Relaxing rate (%)” value turned out to be 78.1%. The figure for `CC(C)(C)NC(CO)c1cc(Cl)c(N)c(C#N)c1.Cl` (stereo not drawn) [drawing 8] is 112.1%.

Consider `CC(C)(C)NC(CO)c1ccc(N)c(C(F)(F)F)c1.Cl` (stereo not drawn) [drawing 12], for which the “Relaxing rate (%)” value is listed as 70.2%. To `CC(C)(C)NC(CO)c1ccc(N)c(C(F)(F)F)c1.Cl` (stereo not drawn) [drawing 13] belongs 55.3%; to `CC(C)(C)NC(CO)c1ccc(N)c(C(F)(F)F)c1.Cl` (stereo not drawn) [drawing 14], 88.3%.
